Assay results reported in patent US20250129430A1, “HIGH ATP-AFFINITY PROTEIN AS THERAPEUTIC TARGET FOR INTRACTABLE CANCER MOLECULAR SUBTYPES AND INHIBITOR THEREOF” (VeraVerse Co., Ltd., priority 2021, published 2025).

Assays:
Format in all cases: cell-based, human
FU97 = assay: Cell viability drug screen, 12-point dose-response AUC; design: Average Area Under the Viability Curve (AUC), AUC norm value: scale not given here; details: FU97 cells, 72 hours
Summary of the method: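 Trapezoidal AUC of a 12-point, DMSO-normalized dose-response curve. Luminescent viability was measured after 72 h of exposure at 37° C to half-log serial dilutions (0.5% DMSO control), dosed 24 h after plating FU97 cells at 5×10^3 per well.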

[1] = tested on: non-SEM-type gastric cancer cell line; assay: Cell viability drug screen, AUC summary over non-SEM-type lines; details: in the non-SEM-type gastric cancer cell line
NCC59 = assay: Cell viability drug screen, 12-point dose-response AUC; details: NCC59 cells, 72 hours
Summary of the method: (§1)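 Viability: luminescence (Glo kit, 15 min RT), normalized to 0.5% DMSO vehicle. Dosing: half-log, 12 concentrations, 72 h. Cells: 5×10^3/well, treated 24 h after plating. Value: trapezoidal AUC, mean of repeats.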

SNU216 = assay: as above; details: 72 hours; for Average Area Under the Viability Curve (AUC), AUC norm value: SNU216 cells (non-SEM subtype)
Summary of the method: as §1

MKN74 = assay: as above; details: MKN74 cells, 72 hours
Summary of the method: as §1

SNU719 = assay: as above; details: SNU719 cells, 72 hours
Summary of the method: as §1

OCUM1 = assay: as above; details: OCUM1 cells, 72 hours
Summary of the method: as §1

Hs746T = assay: as above; details: 72 hours; for Average Area Under the Viability Curve (AUC), AUC norm value: Hs746T cells (SEM subtype)
Summary of the method: as §1

SNU16 = assay: as above; details: SNU16 cells, 72 hours
Summary of the method: as §1

KATO3 = assay: as above; details: KATO3 cells, 72 hours
Summary of the method: as §1

NCC19 = assay: as above; details: NCC19 cells, 72 hours
Summary of the method: as §1

MKN1 = assay: as above; details: MKN1 cells, 72 hours
Summary of the method: as §1

NCC24 = assay: as above; details: NCC24 cells, 72 hours
Summary of the method: as §1

SNU1967 = assay: as above; details: SNU1967 cells, 72 hours
Summary of the method: as §1

SNU601 = assay: as above; details: SNU601 cells, 72 hours
Summary of the method: as §1

AGS = assay: as above; details: 72 hours; for Average Area Under the Viability Curve (AUC), AUC norm value: AGS cells (non-SEM subtype)
Summary of the method: as §1

NCC20 = assay: as above; details: NCC20 cells, 72 hours
Summary of the method: as §1

SNU484 = assay: as above; details: 72 hours; for Average Area Under the Viability Curve (AUC), AUC norm value: SNU484 cells (SEM subtype)
Summary of the method: as §1

YCC2 = assay: as above; details: YCC2 cells, 72 hours
Summary of the method: as §1

SNU668 = assay: as above; details: 72 hours; for Average Area Under the Viability Curve (AUC), AUC norm value: SNU668 cells (SEM subtype)
Summary of the method: as §1

NCI_N87 = assay: as above; details: NCI_N87 cells, 72 hours
Summary of the method: as §1

SNU620 = assay: as above; details: SNU620 cells, 72 hours
Summary of the method: as §1

SNU1750 = assay: as above; details: 72 hours; for Average Area Under the Viability Curve (AUC), AUC norm value: SNU1750 cells (SEM subtype)
Summary of the method: as §1

SK4 = assay: as above; details: 72 hours; for Average Area Under the Viability Curve (AUC), AUC norm value: SK4 cells (SEM subtype)
Summary of the method: as §1

SNU1 = assay: as above; details: SNU1 cells, 72 hours
Summary of the method: as §1

YCC11 = assay: as above; details: 72 hours; for Average Area Under the Viability Curve (AUC), AUC norm value: YCC11 cells (SEM subtype)
Summary of the method: as §1

YCC3 = assay: as above; details: YCC3 cells, 72 hours
Summary of the method: as §1

MKN28 = assay: as above; details: MKN28 cells, 72 hours
Summary of the method: as §1

MKN45 = assay: as above; details: 72 hours; for Average Area Under the Viability Curve (AUC), AUC norm value: MKN45 cells (non-SEM subtype)
Summary of the method: as §1

SNU638 = assay: as above; details: SNU638 cells, 72 hours
Summary of the method: as §1

SMILES: Cc1ccc([N+](=O)[O-])cc1S(=O)(=O)N(C)/N=C/c1cnc2ccc(Br)cn12 [PIK-75]
- Average Area Under the Viability Curve (AUC), AUC norm value (FU97): −0.5267
- AUC value [1]: high
- Average Area Under the Viability Curve (AUC), AUC norm value (NCC59): −0.1565
- Average Area Under the Viability Curve (AUC), AUC norm value (SNU216): 0.8132
- Average Area Under the Viability Curve (AUC), AUC norm value (MKN74): 0.2052
- Average Area Under the Viability Curve (AUC), AUC norm value (SNU719): 5.726
- Average Area Under the Viability Curve (AUC), AUC norm value (OCUM1): 0.5105
- Average Area Under the Viability Curve (AUC), AUC norm value (Hs746T): 0.1171
- Average Area Under the Viability Curve (AUC), AUC norm value (SNU16): −1.485
- Average Area Under the Viability Curve (AUC), AUC norm value (KATO3): 3.793
- Average Area Under the Viability Curve (AUC), AUC norm value (NCC19): 0.3535
- Average Area Under the Viability Curve (AUC), AUC norm value (MKN1): −0.03458
- Average Area Under the Viability Curve (AUC), AUC norm value (NCC24): −0.07825
- Average Area Under the Viability Curve (AUC), AUC norm value (SNU1967): −0.3048
- Average Area Under the Viability Curve (AUC), AUC norm value (SNU601): 1.999
- Average Area Under the Viability Curve (AUC), AUC norm value (AGS): −1.2576
- Average Area Under the Viability Curve (AUC), AUC norm value (NCC20): −0.4913
- Average Area Under the Viability Curve (AUC), AUC norm value (SNU484): −0.9469
- Average Area Under the Viability Curve (AUC), AUC norm value (YCC2): 1.289
- Average Area Under the Viability Curve (AUC), AUC norm value (SNU668): −0.428
- Average Area Under the Viability Curve (AUC), AUC norm value (NCI_N87): −0.1238
- Average Area Under the Viability Curve (AUC), AUC norm value (SNU620): 0.7882
- Average Area Under the Viability Curve (AUC), AUC norm value (SNU1750): 0
- Average Area Under the Viability Curve (AUC), AUC norm value (SK4): −1.009
- Average Area Under the Viability Curve (AUC), AUC norm value (SNU1): −0.3397
- Average Area Under the Viability Curve (AUC), AUC norm value (YCC11): −0.5398
- Average Area Under the Viability Curve (AUC), AUC norm value (YCC3): 1.723
- Average Area Under the Viability Curve (AUC), AUC norm value (MKN28): 0.05865
- Average Area Under the Viability Curve (AUC), AUC norm value (MKN45): 1.17
- Average Area Under the Viability Curve (AUC), AUC norm value (SNU638): 1.312

SMILES: Nc1cc(C(F)(F)F)c(-c2cc(N3CCOCC3)nc(N3CCOCC3)n2)cn1 [BKM120]
- area under the viability curve (AUC), normalized (FU97; 12-point dose-response): −1.3007
- AUC value [1]: high
- area under the viability curve (AUC), normalized (NCC59; 12-point dose-response): 1.23
- area under the viability curve (AUC), normalized (SNU216; SNU216 cells, 12-point dose-response): 0.1342
- area under the viability curve (AUC), normalized (MKN74; 12-point dose-response): −0.05182
- area under the viability curve (AUC), normalized (SNU719; 12-point dose-response): 3.314
- area under the viability curve (AUC), normalized (OCUM1; 12-point dose-response): 0.7561
- area under the viability curve (AUC), normalized (Hs746T; Hs746T cells, 12-point dose-response): 0
- area under the viability curve (AUC), normalized (SNU16; 12-point dose-response): −0.3076
- area under the viability curve (AUC), normalized (KATO3; 12-point dose-response): 2.449
- area under the viability curve (AUC), normalized (NCC19; 12-point dose-response): 0.6866
- area under the viability curve (AUC), normalized (MKN1; 12-point dose-response): −0.1827
- area under the viability curve (AUC), normalized (NCC24; 12-point dose-response): −0.4391
- area under the viability curve (AUC), normalized (SNU1967; 12-point dose-response): 0.676
- area under the viability curve (AUC), normalized (SNU601; 12-point dose-response): 0.9711
- area under the viability curve (AUC), normalized (AGS; AGS cells, 12-point dose-response): −1.094
- area under the viability curve (AUC), normalized (NCC20; 12-point dose-response): −0.07502
- area under the viability curve (AUC), normalized (SNU484; SNU484 cells, 12-point dose-response): −0.475
- area under the viability curve (AUC), normalized (YCC2; 12-point dose-response): 0.7169
- area under the viability curve (AUC), normalized (SNU668; SNU668 cells, 12-point dose-response): 0.2688
- area under the viability curve (AUC), normalized (NCI_N87; 12-point dose-response): −0.38
- area under the viability curve (AUC), normalized (SNU620; 12-point dose-response): −0.08823
- area under the viability curve (AUC), normalized (SNU1750; SNU1750 cells, 12-point dose-response): −0.4392
- area under the viability curve (AUC), normalized (SK4; SK4 cells, 12-point dose-response): −1.247
- area under the viability curve (AUC), normalized (SNU1; 12-point dose-response): 0.2556
- area under the viability curve (AUC), normalized (YCC11; YCC11 cells, 12-point dose-response): −1.147
- area under the viability curve (AUC), normalized (YCC3; 12-point dose-response): 1.085
- area under the viability curve (AUC), normalized (MKN28; 12-point dose-response): −0.0925
- area under the viability curve (AUC), normalized (MKN45; MKN45 cells, 12-point dose-response): 1.074
- area under the viability curve (AUC), normalized (SNU638; 12-point dose-response): 0.01503

SMILES: CO[C@H]1C(=O)[C@]2(C)[C@@H](OC)C[C@H]3OC[C@@]3(OC(C)=O)[C@H]2[C@H](OC(=O)c2ccccc2)[C@]2(O)C[C@H](OC(=O)[C@H](O)[C@@H](NC(=O)OC(C)(C)C)c3ccccc3)C(C)=C1C2(C)C [Cabazitaxel (Jevtana), Cabazitaxel]
- Average Area Under the Viability Curve (AUC), AUC norm value (FU97): 0.3061
- Average Area Under the Viability Curve (AUC), AUC norm value (NCC59): 3.939
- Average Area Under the Viability Curve (AUC), AUC norm value (SNU216): 2.335
- Average Area Under the Viability Curve (AUC), AUC norm value (MKN74): 0.4319
- Average Area Under the Viability Curve (AUC), AUC norm value (SNU719): 6.209
- Average Area Under the Viability Curve (AUC), AUC norm value (OCUM1): 3.086
- Average Area Under the Viability Curve (AUC), AUC norm value (Hs746T): 1.085
- Average Area Under the Viability Curve (AUC), AUC norm value (SNU16): −2.759
- Average Area Under the Viability Curve (AUC), AUC norm value (KATO3): 4.95
- Average Area Under the Viability Curve (AUC), AUC norm value (NCC19): 0
- Average Area Under the Viability Curve (AUC), AUC norm value (MKN1): −1.266
- Average Area Under the Viability Curve (AUC), AUC norm value (NCC24): −1.077
- Average Area Under the Viability Curve (AUC), AUC norm value (SNU1967): 1.228
- Average Area Under the Viability Curve (AUC), AUC norm value (SNU601): −1.688
- Average Area Under the Viability Curve (AUC), AUC norm value (AGS): −2.201
- Average Area Under the Viability Curve (AUC), AUC norm value (NCC20): −0.8551
- Average Area Under the Viability Curve (AUC), AUC norm value (SNU484): −0.7278
- Average Area Under the Viability Curve (AUC), AUC norm value (YCC2): 0.2073
- Average Area Under the Viability Curve (AUC), AUC norm value (SNU668): 0.4109
- Average Area Under the Viability Curve (AUC), AUC norm value (NCI_N87): −1.712
- Average Area Under the Viability Curve (AUC), AUC norm value (SNU620): −3.501
- Average Area Under the Viability Curve (AUC), AUC norm value (SNU1750): 0.6058
- Average Area Under the Viability Curve (AUC), AUC norm value (SK4): −0.7298
- Average Area Under the Viability Curve (AUC), AUC norm value (SNU1): −3.451
- Average Area Under the Viability Curve (AUC), AUC norm value (YCC11): −1.189
- Average Area Under the Viability Curve (AUC), AUC norm value (YCC3): 3.384
- Average Area Under the Viability Curve (AUC), AUC norm value (MKN28): −2.213
- Average Area Under the Viability Curve (AUC), AUC norm value (MKN45): 2.138
- Average Area Under the Viability Curve (AUC), AUC norm value (SNU638): −0.1608
